This note sets out measurements from patent US9062061B2, “Compound having PARP inhibitory activity” (SANTEN PHARMACEUTICAL CO., LTD., priority 2011, dated 2015).

One assay has as its target T1, human recombinant PARP1 (Homo sapiens, UniProt P09874).
T1 construct: purchased Trevigen 4677-096-K
The assay can be described thus: PARP inhibitory activity measurement test (Universal Colorimetric PARP Assay kit, Trevigen). The class given is biochemical. Particulars: compound concentration: 10 μM, read-out: PARP1 inhibition rate (%). The protocol: For evaluating PARP inhibitory activity of the present compound, inhibitory activity of each test compound against human recombinant PARP 1 was measured using Universal Colorimetric PARP Assay kit with Histone-Coated Strip Wells (Cat No.: 4677-096-K) available from Trevigen. The test was conducted according to the procedure in the instruction attached to this kit. The concrete operation will be described below.
After dissolving the test compound in dimethyl sulfoxide, the solution was diluted with a PARP buffer attached to the kit to prepare a 50 μM test compound solution.
In each well of a histone-coated 96-well plate, 10 μL of the test compound solution (50 μM), 15 μL of human recombinant PARP1 (33.3 Unit/mL) and 25 μL of PARP cocktail (containing activated DNA and biotinated NAD) were added, and incubated at room temperature for 1 hour (final reaction amount: 50 μL). Each well was washed twice with 200 μL of 0.1% Triton-X-containing Dulbecco's phosphate buffer, and further washed twice with 200 μL of Dulbecco's phosphate buffer, and then 50 μL of Strep-HRP was added, followed by incubation at room temperature for 1 hour. Each well was washed twice with 200 μL of 0.1% Triton-X-containing Dulbecco's phosphate buffer, and further washed twice with 200 μL of Dulbecco's phosphate buffer, and then 50 μL of TACS-Sapphire coloriometric substrate was added, followed by incubation at room temperature for 15 minutes. After stopping the reaction by adding 50 μL of 0.2 M HCl, absorbance at 450 nm (Abs 450) was measured by a microplate reader. The number of examples in each group was 1 to 2.
Using a well into which dimethyl sulfoxide and a PARP buffer were added in place of the test compound solution and human recombinant PARP1, the above operation was conducted as a negative control.
Using a well into which a PARP buffer containing dimethyl sulfoxide was added in place of the test compound solution, the above operation was conducted as a positive control.
PARP1 inhibition rate (%) was calculated according to the following Formula 1. PARP1 inhibition rate(%)=(AbsB−AbsX)/(AbsB−AbsA)×100 [Formula 1]
AbsA: absorbance of negative control (Abs 450)
AbsB: absorbance of positive control (Abs 450)
AbsX: absorbance of test compound-treated group (Abs 450)

The test system of assay [1] is rat thrombin-induced retinal vascular hyperpermeability model. The assay can be described thus: Retinal vascular hyperpermeability inhibitory activity in rat thrombin model (intravitreal protein concentration, Bradford method). Particulars: thrombin 3 U/eye intravitreal; test compound 100 mg/kg orally 1.5 hours before and 22.5 hours after thrombin; Brown Norway male rats. The class given is in vivo. The protocol:
For examining the influence of the present compound on retinal vascular hyperpermeability, the retinal vascular hyperpermeability inhibitory activity of the test compound was evaluated using a rat thrombin-induced retinal vascular hyperpermeability model. The rat thrombin-induced retinal vascular hyperpermeability model is an animal in which retinal vascular permeability is increased by administration of thrombin, and is used as a model animal for diabetic retinopathy, diabetic macular edema and so on (IONS, 2000, 41(4), S18, 92).
A thrombin liquid preparation was intravitreally administered to 8-week old Brown Norway male rat at a dose of 3 U/eye, and the vitreous body was collected on the next day of administration, and intravitreal protein concentration was measured by the Bradford method. A normal control group received intravitreal administration of DPBS. The number of examples in each group was 4 rats (7-8 eyes).
(Administration Method) • Test compound-administered group: A solution of each test compound suspended in 1% (w/v) methylcellulose aqueous solution was orally administered in a dose of 100 mg/kg, 1.5 hours before and 22.5 hours after thrombin administration. • Normal control group and vehicle-administered group
According to the following Formula 3, retinal vascular hyperpermeability inhibition rate was calculated. […]

The test system of assay [2] is rat N-methyl-N-nitrosourea (MNU)-induced retinal degeneration model. The assay can be described thus: Retinal degeneration inhibitory activity in rat MNU-induced model (retinal volume by OCT). The class given is in vivo. Particulars: po, 168 h, seventh day, Brown Norway male rats, read-out: Retinal volume reduction inhibition rate (%); for inhibition in vivo at 10 mg/kg: test compound 10 mg/kg orally once 30 minutes before MNU. The protocol:
For examining influence of the present compound on the retinal degeneration, retinal degeneration inhibitory activity of test compound was evaluated, using a rat N-methyl-N-nitrosourea (hereinafter, “MNU”)-induced retinal degeneration model. The rat MNU-induced retinal degeneration model is a model animal in which cell death of retinal photoreceptor cell is induced by administration of MNU which is a DNA alkylation agent, and is generally used as a model animal for chorioretinal degenerative diseases such as retinitis pigmentosa (Exp. Eye. Res., 84(2), 285-292 (2007)).
By the previous day of MNU administration, retinal volumes of 8-week-old Brown Norway male rats were measured by using optical coherence tomography (OCT) (product of Carl Zeiss, model number: STRATUS OCT Model 3000). An MNU administration liquid was intraperitoneally administered to the rats at a dose of 50 to 60 mg/kg, and on the seventh day after administration, retinal volumes were measured by using OCT. The normal control group underwent no treatment, and retinal volumes were measured on the same day as the MNU administration group. The number of examples in each group was 4 rats (8 eyes).
(Administration Method) • Test compound-administered group: A solution of each test compound suspended in 1% (w/v) methylcellulose aqueous solution was orally administered once 30 minutes before MNU administration at a dose of 1 to 30 mg/kg. • Normal control group and vehicle-administered group: 1% (w/v) methylcellulose aqueous solution was orally administered once 30 minutes before MNU administration.
According to the following Formula 2, retinal volume reduction inhibition rate (%) was calculated. Retinal volume reduction inhibition rate(%)=(RVX-pre/RVX-post−RVB-pre/RVB-post)/(RVA-pre/RVA-post−RVB-pre/RVB-post)×100 [Formula 2]
RVA-pre: retinal volume before MNU administration of normal control group (mm^3)
RVA-post: retinal volume on the seventh day after MNU administration of normal control group (mm^3)
RVB-pre: retinal volume before MNU administration of vehicle-administered group (mm^3)
RVB-post: retinal volume on the seventh day after MNU administration of vehicle-administered group (mm^3)
RVX-pre: retinal volume before MNU administration of test compound-administered group (mm^3)
RVX-post: retinal volume on the seventh day after MNU administration of test compound-administered group (mm^3)

Read-outs that look alike come from different tables or passages of the source.

T1 sequence (P09874 whole entry): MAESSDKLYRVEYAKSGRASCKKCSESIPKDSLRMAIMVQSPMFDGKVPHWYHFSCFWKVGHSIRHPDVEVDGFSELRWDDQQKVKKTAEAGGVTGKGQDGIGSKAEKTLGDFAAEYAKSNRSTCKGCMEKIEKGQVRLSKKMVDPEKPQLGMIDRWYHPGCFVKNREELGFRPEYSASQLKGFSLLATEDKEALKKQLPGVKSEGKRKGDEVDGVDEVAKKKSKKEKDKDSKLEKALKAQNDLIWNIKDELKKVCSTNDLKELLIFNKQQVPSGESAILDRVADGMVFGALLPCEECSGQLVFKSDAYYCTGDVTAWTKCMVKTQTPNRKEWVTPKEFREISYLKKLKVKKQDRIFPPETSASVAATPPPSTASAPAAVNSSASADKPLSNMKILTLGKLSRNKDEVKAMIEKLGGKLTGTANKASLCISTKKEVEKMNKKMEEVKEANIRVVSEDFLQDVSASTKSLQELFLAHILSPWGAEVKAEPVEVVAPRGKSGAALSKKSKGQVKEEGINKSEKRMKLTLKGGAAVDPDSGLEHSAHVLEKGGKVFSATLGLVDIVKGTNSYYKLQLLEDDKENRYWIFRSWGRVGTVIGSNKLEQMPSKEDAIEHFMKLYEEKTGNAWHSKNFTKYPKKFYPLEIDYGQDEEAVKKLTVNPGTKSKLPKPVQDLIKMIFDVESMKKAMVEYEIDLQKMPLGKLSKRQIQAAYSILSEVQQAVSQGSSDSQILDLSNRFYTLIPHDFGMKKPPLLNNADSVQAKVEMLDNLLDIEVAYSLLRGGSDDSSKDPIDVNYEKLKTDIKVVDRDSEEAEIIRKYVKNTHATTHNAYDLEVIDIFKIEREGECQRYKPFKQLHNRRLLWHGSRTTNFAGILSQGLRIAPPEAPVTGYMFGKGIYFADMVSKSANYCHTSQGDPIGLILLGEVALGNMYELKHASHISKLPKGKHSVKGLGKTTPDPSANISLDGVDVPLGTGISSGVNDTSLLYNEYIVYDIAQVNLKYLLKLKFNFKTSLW

In the case of `O=c1[nH]c2cc(CN3CCN(c4ccc(F)cc4)CC3)cn2c2ccccc12` [Compound 2-1, 2-[4-(4-Fluorophenyl)piperazin-1-ylmethyl]pyrrolo[1,2-a]quinazolin-5 (4H)-one], at human recombinant PARP1, the inhibition at 10 µM was found to be 100%. The “Retinal vascular hyperpermeability inhibition rate (%)” value in assay [1] is reported as 63%. The inhibition in vivo at 10 mg/kg in assay [2] (MNU 60 mg/kg i.p.) stood at 65%.
On to `O=c1[nH]c2cc(CN3CCC(c4ccccc4)CC3)cn2c2ccccc12` [Compound 2-5, 2-(4-Phenylpiperidin-1-ylmethyl)pyrrolo[1,2-a]quinazolin-5(4H)-one], for which the inhibition at 10 µM on human recombinant PARP1 stood at 96%. In assay [2] (MNU 50 mg/kg i.p.), the inhibition in vivo at 10 mg/kg turned out to be 16%.
In the case of `O=c1[nH]c2cc(CN3CC=C(c4ccc(Cl)cc4)CC3)cn2c2ccccc12` [Compound 2-7, 2-[4-(4-Chlorophenyl)-1,2,3,6-tetrahydropyridine-1-ylmethyl]pyrrolo[1,2-a]quinazolin-5(4H)-one], the inhibition at 10 µM at human recombinant PARP1 is 99%. Further, the inhibition in vivo at 10 mg/kg in assay [2] (MNU 50 mg/kg i.p.) amounted to 69%.
The like results for `O=c1[nH]c2cc(CN3CC=C(c4ccc(F)cc4)CC3)cn2c2ccccc12` [Compound 2-8, 2-[4-(4-Fluorophenyl)-1,2,3,6-tetrahydropyridin-1-ylmethyl]pyrrolo[1,2-a]quinazolin-5(4H)-one] were, in that order, 100% and 39%.
The like results for `O=c1[nH]c2cc(CN3CCN(c4ccccc4F)CC3)cn2c2ccccc12` [Compound 2-9, 2-[4-(2-Fluorophenyl)piperazin-1-ylmethyl]pyrrolo[1,2-a]quinazolin-5(4H)-one] were, in that order, 99% and 25%.
Regarding `O=c1[nH]c2cc(CN3CCN(c4ccc(Cl)cc4)CC3)cn2c2ccccc12` [Compound 2-12, 2-[4-(4-Chlorophenyl)piperazin-1-ylmethyl]pyrrolo[1,2-a]quinazolin-5(4H)-one], on human recombinant PARP1, the inhibition at 10 µM was found to be 100%. For the same compound, the inhibition in vivo at 30 mg/kg in assay [2] (MNU 60 mg/kg i.p., test compound 30 mg/kg orally once 30 minutes before MNU) was 47%.
Regarding `O=c1[nH]c2cc(CN3CCC(c4ccc(F)cc4)CC3)cn2c2ccccc12` [Compound 2-14, 2-[4-(4-Fluorophenyl)piperidin-1-ylmethyl]pyrrolo[1,2-a]quinazolin-5(4H)-one], the inhibition at 10 µM at human recombinant PARP1 is 100%. Further, the inhibition in vivo at 10 mg/kg in assay [2] (MNU 50 mg/kg i.p.) was determined as 33%.
The like results for `COc1ccc(N2CCN(Cc3cc4[nH]c(=O)c5ccccc5n4c3)CC2)cc1` [Compound 2-16, 2-[4-(4-Methoxyphenyl)piperazin-1-ylmethyl]pyrrolo[1,2-a]quinazolin-5(4H)-one] were, in that order, 100% and 29%.
The like results for `O=c1[nH]c2cc(CN3CCN(c4ccccn4)CC3)cn2c2ccccc12` [Compound 2-17, 2-[4-(Pyridin-2-yl)piperazin-1-ylmethyl]pyrrolo[1,2-a]quinazolin-5(4H)-one] were, in that order, 100% and 48%.
Taken in the same sequence, the figures for `O=c1[nH]c2cc(CN3CCN(c4ccc(Cl)cn4)CC3)cn2c2ccccc12` [Compound 2-30, 2-[4-(5-Chloropyridin-2-yl)piperazin-1-ylmethyl]pyrrolo[1,2-a]quinazolin-5(4H)-one] were 100% and 72%.
In the case of `O=c1[nH]c2cc(CN3CCN(c4ccc(F)cc4F)CC3)cn2c2ccccc12` [Compound 2-35, 2-[4-(2,4-Difluorophenyl)piperazin-1-ylmethyl]pyrrolo[1,2-a]quinazolin-5(4H)-one], the inhibition at 10 µM on human recombinant PARP1 is 100%. The inhibition in vivo at 10 mg/kg in assay [2] (MNU 50 mg/kg i.p.) was found to be 61%.
The like results for `COc1cc(F)ccc1N1CCN(Cc2cc3[nH]c(=O)c4ccccc4n3c2)CC1` [Compound 2-39, 2-[4-(4-Fluoro-2-methoxyphenyl)piperazin-1-ylmethyl]pyrrolo[1,2-a]quinazolin-5(4H)-one] were, in that order, 100% and 84%.
The like results for `O=c1[nH]c2cc(CN3CCN(c4ccc5c(c4)OCO5)CC3)cn2c2ccccc12` [Compound 2-40, 2-[4-(1,3-Benzodioxol-5-yl)piperazin-1-ylmethyl]pyrrolo[1,2-a]quinazolin-5(4H)-one] were, in that order, 100% and 88%.
Taken in the same sequence, the figures for `O=c1[nH]c2cc(CN3CCN(c4ccccn4)CC3)cn2c2ccc(F)cc12` [Compound 2-44, 7-Fluoro-2-[4-(pyridin-2-yl)piperazin-1-ylmethyl]pyrrolo[1,2-a]quinazolin-5(4H)-one] were 98% and 81%.
`O=c1[nH]c2cc(CN3CCN(c4ccc(F)cc4)CC3)cn2c2ccc(F)cc12` [Compound 2-45, 7-Fluoro-2-[4-(4-fluorophenyl)piperazin-1-ylmethyl]pyrrolo[1,2-a]quinazolin-5(4H)-one]: the inhibition at 10 µM at human recombinant PARP1 amounted to 100%. Moreover, the inhibition in vivo at 1 mg/kg in assay [2] (MNU 50 mg/kg i.p., test compound 1 mg/kg orally once 30 minutes before MNU) was 81%.
For `[2H]C([2H])(c1cc2[nH]c(=O)c3ccccc3n2c1)N1CCN(c2ccc(F)cc2)CC1` [Compound 4-1, 2-[1-[4-(4-Fluorophenyl)piperazin-1-yl]-1,1-dideuteriomethyl]pyrrolo[1,2-a]quinazolin-5(4H)-one], the inhibition at 10 µM on human recombinant PARP1 came out at 100%. In addition, in assay [2] (MNU 50 mg/kg i.p.), the inhibition in vivo at 10 mg/kg came out at 94%.

Usually inhibition stands for the drop in the measured response relative to a control, in per cent.
